Data from patent publication US20040110802A1, “Antibacterial benzoic acid derivatives” (priority 2002, published 2004).
In brackets after ≈: the same amount, converted by molar mass. Read-outs that look alike come from different tables or passages of the source.

System: SAUR 9218
Experiment: MIC Test Method, standard agar dilution
Assay type: cell-based
Details: read-out: SAUR 9218 MIC
How it was run: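 Agar dilution in Mueller Hinton agar with serial 2-fold compound dilutions. Staphylococcus aureus strain 9218 spotted at approximately 10^4 to 10^5 cells per spot, incubated overnight at 35 °C; MIC (μg/ml) is the lowest concentration preventing visible growth.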

[1] = agar dilution, Mueller Hinton agar, incubated overnight at 35° C., lowest concentration that inhibits visible growth

N#Cc1ccc(NC(=O)c2noc3ccc(NC(=O)C4CCC4)cc23)c(C(=O)O)c1
MIC [1]: 2 µg/mL (≈ 4.95 µM)

COc1ccc(-c2cnc(C(=O)Nc3ccc(C#N)cc3C(=O)O)cn2)c(OC)c1OC
MIC [1]: > 128 µg/mL

CSc1ncc(Cl)c(C(=O)Nc2ccc(Br)cc2C(=O)O)n1
MIC [1]: > 128 µg/mL

Cc1noc(C)c1-c1cnc(C(=O)Nc2ccc(C#N)cc2C(=O)O)cn1
MIC [1]: > 128 µg/mL

N#Cc1ccc(NC(=O)c2cc(-c3ccccc3NS(=O)(=O)c3ccc(OC(F)(F)F)cc3)on2)c(C(=O)O)c1
MIC [1]: 8 µg/mL (≈ 14 µM)

COCOCC(OCOC)C(Cc1cnc(C(=O)Nc2ccc(Br)cc2C(=O)O)cn1)OC (stereo not shown)
MIC [1]: > 128 µg/mL

N#Cc1ccc(NC(=O)c2cc3cccc(NC(=O)C4CCCN4)c3[nH]2)c(C(=O)O)c1 (stereo not shown)
MIC [1]: > 128 µg/mL

CCCCCn1c(C(=O)Nc2ccc(Br)cc2C(=O)O)cc2ccccc21
MIC [1]: 2 µg/mL (≈ 4.66 µM)

Cn1c(C(=O)Nc2ccc(C#N)cc2C(=O)O)cc2cccc(OCc3ccccc3)c21
MIC [1]: 0.125 µg/mL (≈ 0.294 µM)

N#Cc1ccc(NC(=O)c2cc(-c3ccccc3)on2)c(C(=O)O)c1
MIC [1]: 0.25 µg/mL (≈ 0.75 µM)

Cc1sc(C(=O)Nc2ccc(C#N)cc2C(=O)O)cc1S(=O)(=O)N1CCCCCC1
MIC [1]: 8 µg/mL (≈ 17.9 µM)

CCC(CC)Sc1ccc(C(=O)Nc2ccc(C#N)cc2C(=O)O)cn1
MIC [1]: 0.25 µg/mL (≈ 0.677 µM)

CC(CC(=O)Nc1cccc2cc(C(=O)Nc3ccc(C#N)cc3C(=O)O)[nH]c12)CC(C)(C)C (stereo not shown)
MIC [1]: 0.5 µg/mL (≈ 1.09 µM)

CCCCCCSc1cnc(C(=O)Nc2ccc(C#N)cc2C(=O)O)nc1
MIC [1]: 2 µg/mL (≈ 5.2 µM)

Cc1ccc(-c2cccc3cc(C(=O)Nc4ccc(C#N)cc4C(=O)O)n(C)c23)s1
MIC [1]: 0.5 µg/mL (≈ 1.2 µM)

N#Cc1ccc(NC(=O)c2cncc(Oc3ccccc3)c2)c(C(=O)O)c1
MIC [1]: 8 µg/mL (≈ 22.3 µM)

CCCCn1c(C(=O)Nc2ccc(C#N)cc2C(=O)O)cc2ccccc21
MIC [1]: 32 µg/mL (≈ 88.5 µM)

CCCN(CCC)S(=O)(=O)c1ccc(C(=O)Nc2ccc(Br)cc2C(=O)O)cn1
MIC [1]: 8 µg/mL (≈ 16.5 µM)

Cc1nc2cc(NS(=O)(=O)c3cc(C(=O)Nc4ccc(Br)cc4C(=O)O)sc3C)ccc2s1
MIC [1]: 32 µg/mL (≈ 56.5 µM)

Cn1c(C(=O)Nc2ccc(C#N)cc2C(=O)O)cc2cccc(NC(=O)CF)c21
MIC: 1 µg/mL (≈ 2.54 µM)

CCCCNCC(O)COc1cccc2cc(C(=O)Nc3ccc(C#N)cc3C(=O)O)n(C)c12.Cl (stereo not shown)
MIC [1]: 0.5 µg/mL

O=C(Nc1ccc(Br)cc1C(=O)O)c1cc(-c2ccc3c(c2)OCO3)on1
MIC [1]: 0.125 µg/mL (≈ 0.29 µM)

N#Cc1ccc(/C=C/c2noc3ccccc23)c(C(=O)O)c1
MIC [1]: 64 µg/mL (≈ 220 µM)

COCOCC(CCc1cc(C(=O)Nc2ccc(Br)cc2C(=O)O)no1)OCOC (stereo not shown)
MIC [1]: 8 µg/mL (≈ 16.4 µM)

CCCCCSc1ccc(C(=O)Nc2ccc(Br)cc2C(=O)O)nn1
MIC [1]: 0.03 µg/mL (≈ 0.0707 µM)

O=C(Nc1ccc(Br)cc1C(=O)O)c1ccc(-c2cccc(C(F)(F)F)c2)o1
MIC [1]: 16 µg/mL (≈ 35.2 µM)

N#Cc1ccc(NC(=O)c2cc(-c3ccccc3OCC3CCCCO3)on2)c(C(=O)O)c1 (stereo not shown)
MIC [1]: 2 µg/mL (≈ 4.47 µM)

N#Cc1ccc(NC(=O)c2cncc(-c3ccc(C(F)(F)F)cc3)c2)c(C(=O)O)c1
MIC [1]: > 128 µg/mL

N#Cc1ccc(NC(=O)c2ccc(SCC3CC3)nc2)c(C(=O)O)c1
MIC [1]: 0.5 µg/mL (≈ 1.41 µM)

N#Cc1ccc(NC(=O)c2cncc(-c3ccccn3)c2)c(C(=O)O)c1
MIC [1]: > 128 µg/mL

CCCCN1C(=O)c2ccc(C(=O)Nc3ccc(C#N)cc3C(=O)O)cc2C1=O
MIC [1]: 4 µg/mL (≈ 10.2 µM)

N#Cc1ccc(NC(=O)c2cc3cccc4c3n2CC/C4=N\Oc2ccccc2)c(C(=O)O)c1
MIC [1]: 2 µg/mL (≈ 4.44 µM)

CC(C)Sc1ccc(C(=O)Nc2ccc(C#N)cc2C(=O)O)cn1
MIC [1]: 0.25 µg/mL (≈ 0.732 µM)

N#Cc1ccc(NC(=O)c2cncc(-c3cnccn3)c2)c(C(=O)O)c1
MIC [1]: 16 µg/mL (≈ 46.3 µM)

N#Cc1ccc(NC(=O)c2ccc(SC3CCOCC3)nc2)c(C(=O)O)c1
MIC [1]: 0.125 µg/mL (≈ 0.326 µM)

N#Cc1ccc(NC(=O)c2cnc(Cl)cn2)c(C(=O)O)c1
MIC [1]: 32 µg/mL (≈ 106 µM)

N#Cc1ccc(-c2cnc(C(=O)Nc3ccc(Br)cc3C(=O)O)o2)cc1
MIC [1]: 8 µg/mL (≈ 19.4 µM)

N#Cc1ccc(NC(=O)c2cc3cccc(NC(=O)c4cccc(F)c4)c3[nH]2)c(C(=O)O)c1
MIC [1]: 0.5 µg/mL (≈ 1.13 µM)

N#Cc1ccc(NC(=O)c2cncc(Br)c2)c(C(=O)O)c1
MIC [1]: 8 µg/mL (≈ 23.1 µM)

CCN(CC)S(=O)(=O)c1ccc2onc(C(=O)Nc3ccc(C#N)cc3C(=O)O)c2c1
MIC [1]: 0.125 µg/mL (≈ 0.283 µM)

N#Cc1ccc(NC(=O)c2cncc(-c3ccco3)c2)c(C(=O)O)c1
MIC [1]: 4 µg/mL (≈ 12 µM)

CC(=O)OC(C(=O)Nc1cccc2cc(C(=O)Nc3ccc(C#N)cc3C(=O)O)[nH]c12)c1ccccc1 (stereo not shown)
MIC [1]: 1 µg/mL (≈ 2.01 µM)

N#Cc1ccc(NC(=O)c2cc3cccc(NC(=O)CCc4ccccc4)c3[nH]2)c(C(=O)O)c1
MIC [1]: 0.5 µg/mL (≈ 1.11 µM)

N#Cc1ccc(NC(=O)c2cc(-c3ccccc3Oc3cccc(-c4ccccc4)c3)on2)c(C(=O)O)c1
MIC [1]: > 128 µg/mL

CS(=O)(=O)N(c1ccc2onc(C(=O)Nc3ccc(C#N)cc3C(=O)O)c2c1)S(C)(=O)=O
MIC [1]: 0.125 µg/mL (≈ 0.261 µM)

O=C(Nc1ccc(Br)cc1C(=O)O)c1csc(S(=O)(=O)N2CCc3ccc(Cl)cc32)c1
MIC [1]: 8 µg/mL (≈ 14.8 µM)

N#Cc1ccc(NC(=O)c2cc3ccccc3o2)c(C(=O)O)c1
MIC [1]: 2 µg/mL (≈ 6.53 µM)

Cc1sc(C(=O)Nc2ccc(C#N)cc2C(=O)O)cc1S(=O)(=O)N1CCCC2CCCCC21 (stereo not shown)
MIC [1]: 32 µg/mL (≈ 65.6 µM)

N#Cc1ccc(NC(=O)c2cc(CN(CCO)CCO)on2)c(C(=O)O)c1
MIC [1]: 8 µg/mL (≈ 21.4 µM)

CCCCCNC(=O)Nc1ccc2cc(C(=O)Nc3ccc(C#N)cc3C(=O)O)n(C)c2c1
MIC [1]: 0.5 µg/mL (≈ 1.12 µM)

N#Cc1ccc(NC(=O)c2cc(CN=[N+]=[N-])on2)c(C(=O)O)c1
MIC [1]: 4 µg/mL (≈ 12.8 µM)

Cc1sc(C(=O)Nc2ccc(C#N)cc2C(=O)O)cc1S(=O)(=O)N1CCC(C)CC1
MIC [1]: 8 µg/mL (≈ 17.9 µM)

COCCOCCCSc1ccc(C(=O)Nc2ccc(Br)cc2C(=O)O)cn1
MIC [1]: 0.5 µg/mL (≈ 1.07 µM)

N#Cc1ccc(NC(=O)c2ccc3ccccc3n2)c(C(=O)O)c1
MIC [1]: 8 µg/mL (≈ 25.2 µM)

O=C(Nc1ccc(Br)cc1C(=O)O)c1cnc2ccccc2n1
MIC [1]: 8 µg/mL (≈ 21.5 µM)

COCCn1c(C(=O)Nc2ccc(C#N)cc2C(=O)O)cc2ccccc21
MIC [1]: 0.5 µg/mL (≈ 1.38 µM)

O=C(Nc1ccc(Br)cc1C(=O)O)c1ccccn1
MIC [1]: > 128 µg/mL

COC(=O)CCCCCCC(=O)Nc1cccc2cc(C(=O)Nc3ccc(C#N)cc3C(=O)O)[nH]c12
MIC [1]: 1 µg/mL (≈ 2.04 µM)

N#Cc1ccc(NC(=O)c2cc(CCCC3CCCCC3)on2)c(C(=O)O)c1
MIC [1]: 0.25 µg/mL (≈ 0.655 µM)

N#Cc1ccc(NC(=O)c2cc(-c3ccccc3OC3CCOC3)on2)c(C(=O)O)c1 (stereo not shown)
MIC [1]: 0.25 µg/mL (≈ 0.596 µM)

Cc1sc(C(=O)Nc2ccc(Br)cc2C(=O)O)cc1S(=O)(=O)Nc1ccc2c(c1)OCCO2
MIC [1]: 8 µg/mL (≈ 14.5 µM)

Cn1c(C(=O)Nc2ccc(C#N)cc2C(=O)O)cc2ccc(NS(=O)(=O)c3cccc4cccnc34)cc21
MIC [1]: 1 µg/mL (≈ 1.9 µM)

N#Cc1ccc(NC(=O)c2cc3cccc(NC(=O)Cc4ccc5c(c4)OCO5)c3[nH]2)c(C(=O)O)c1
MIC [1]: 0.5 µg/mL (≈ 1.04 µM)

O=C(Nc1ccc(Br)cc1C(=O)O)c1ncc(-c2ccccc2C(F)(F)F)o1
MIC [1]: 1 µg/mL (≈ 2.2 µM)

O=C(Nc1ccc(Br)cc1C(=O)O)c1cc(CCCC2CCCCC2)on1
MIC [1]: 4 µg/mL (≈ 9.19 µM)

CCCCC(C)Sc1ccc(C(=O)Nc2ccc(C#N)cc2C(=O)O)cn1 (stereo not shown)
MIC [1]: 0.125 µg/mL (≈ 0.326 µM)

COCC(=O)Nc1ccc2cc(C(=O)Nc3ccc(C#N)cc3C(=O)O)n(C)c2c1
MIC [1]: 2 µg/mL (≈ 4.92 µM)

Cc1sc(C(=O)Nc2ccc(C#N)cc2C(=O)O)cc1S(=O)(=O)N(C)CCC(O)c1ccccc1 (stereo not shown)
MIC [1]: 64 µg/mL (≈ 125 µM)

O=C(Nc1ccc(Cl)cc1C(=O)O)c1cc(-c2ccc(C(F)(F)F)cc2)on1
MIC [1]: 0.5 µg/mL (≈ 1.22 µM)

O=C(Nc1ccc(Br)cc1C(=O)O)c1cc(-c2ccccc2Cl)on1
MIC [1]: 0.125 µg/mL (≈ 0.296 µM)

COc1ccc2cc(C(=O)Nc3ccc(C#N)cc3C(=O)O)n(C)c2c1
MIC [1]: 0.5 µg/mL (≈ 1.43 µM)

Cc1sc(C(=O)Nc2ccc(Br)cc2C(=O)O)cc1S(=O)(=O)N1CCN(c2cccc(C(F)(F)F)c2)CC1
MIC [1]: 32 µg/mL (≈ 50.6 µM)

COc1ccc2c(C(=O)Nc3ccc(C#N)cc3C(=O)O)noc2c1
MIC [1]: 0.5 µg/mL (≈ 1.48 µM)

N#Cc1ccc(NC(=O)c2ccc(SCc3ncon3)nc2)c(C(=O)O)c1
MIC [1]: 1 µg/mL (≈ 2.62 µM)

O=C(O)c1cc(Br)ccc1NC(=O)c1noc2ccc(S(=O)(=O)NCc3ccccc3)cc12
MIC [1]: 0.06 µg/mL (≈ 0.113 µM)

Cn1nc(-c2ccccc2)cc1C(=O)Nc1ccc(Br)cc1C(=O)O
MIC [1]: 64 µg/mL (≈ 160 µM)

N#Cc1ccc(NC(=O)c2ccc(S(=O)(=O)N3CCc4cc(Cl)ccc43)nc2)c(C(=O)O)c1
MIC [1]: 2 µg/mL (≈ 4.14 µM)

O=C(Nc1ccc(Br)cc1C(=O)O)c1ccc2ccccc2n1
MIC [1]: 8 µg/mL (≈ 21.6 µM)

CCCCCn1c(C(=O)Nc2ccc(Cl)cc2C(=O)O)cc2ccccc21
MIC [1]: 4 µg/mL (≈ 10.4 µM)

CCCCCSc1cnc(C(=O)Nc2ccc(Cl)cc2C(=O)O)cn1
MIC [1]: 0.125 µg/mL (≈ 0.329 µM)

COC1CCn2c(C(=O)Nc3ccc(C#N)cc3C(=O)O)cc3cccc1c32 (stereo not shown)
MIC [1]: 0.5 µg/mL (≈ 1.33 µM)

Cn1c(C(=O)Nc2ccc(C#N)cc2C(=O)O)cc2cccc(NS(=O)(=O)CS(C)(=O)=O)c21
MIC [1]: 2 µg/mL (≈ 4.08 µM)

N#Cc1ccc(NC(=O)c2cc(-c3ccccc3C(F)(F)F)on2)c(C(=O)O)c1
MIC [1]: 0.25 µg/mL (≈ 0.623 µM)

N#Cc1ccc(NC(=O)c2ccco2)c(C(=O)O)c1
MIC [1]: > 128 µg/mL

O=C(O)c1cc(Br)ccc1NC(=O)c1cccc2c1CCN(Cc1ccccc1)S2(=O)=O
MIC [1]: 8 µg/mL (≈ 15.5 µM)

CS(=O)(=O)c1ncc(Cl)c(C(=O)Nc2ccc(Cl)cc2C(=O)O)n1
MIC [1]: > 128 µg/mL

CC(C)(C)N1C(=O)c2ccc(C(=O)Nc3ccc(Br)cc3C(=O)O)cc2C1=O
MIC [1]: 4 µg/mL (≈ 8.98 µM)

CCOc1nc(SCc2ccccc2)ncc1C(=O)Nc1ccc(C#N)cc1C(=O)O
MIC [1]: 8 µg/mL (≈ 18.4 µM)
